From patent US8937064B2, “Pyrazolo[1,5-a]pyrimidines useful as JAK2 inhibitors” (Vertex Pharmaceuticals Incorporated, priority 2007, dated 2015)

Experiments:
[1] = target: JAK-2 enzyme (Homo sapiens, UniProt O60674); assay: JAK2 Inhibition Assay
Description: Reactions were carried out in a kinase buffer containing 100 mM HEPES (pH 7.4), 1 mM DTT, 10 mM MgCl2, 25 mM NaCl, and 0.01% BSA. Substrate concentrations in the assay were 5 μM ATP (200 uCi/μmole ATP) and 1 μM poly(Glu)4Tyr. Reactions were carried out at 25° C. and 1 nM JAK3.
To each well of a 96 well polycarbonate plate was added 1.5 μl of a candidate JAK3 inhibitor along with 50 μl of kinase buffer containing 2 μM poly(Glu)4Tyr and 10 μM ATP. This was then mixed and 50 μl of kinase buffer containing 2 nM JAK3 enzyme was added to start the reaction. After 20 minutes at room temperature (25° C.), the reaction was stopped with 50 μl of 20% trichloroacetic acid (TCA) that also contained 0.4 mM ATP. The entire contents of each well were then transferred to a 96 well glass fiber filter plate using a TomTek Cell Harvester. After washing, 60 μl of scintillation fluid was added and ^33P incorporation detected on a Perkin Elmer TopCount.

[2] = target: T1, JAK3 (Homo sapiens, UniProt P52333); assay: JAK3 Inhibition Assay; type: biochemical; conditions: 1 nM JAK3, 1 μM poly(Glu)4Tyr, 5 μM ATP, 25° C., 33P incorporation
T1 sequence (P52333 1-1124): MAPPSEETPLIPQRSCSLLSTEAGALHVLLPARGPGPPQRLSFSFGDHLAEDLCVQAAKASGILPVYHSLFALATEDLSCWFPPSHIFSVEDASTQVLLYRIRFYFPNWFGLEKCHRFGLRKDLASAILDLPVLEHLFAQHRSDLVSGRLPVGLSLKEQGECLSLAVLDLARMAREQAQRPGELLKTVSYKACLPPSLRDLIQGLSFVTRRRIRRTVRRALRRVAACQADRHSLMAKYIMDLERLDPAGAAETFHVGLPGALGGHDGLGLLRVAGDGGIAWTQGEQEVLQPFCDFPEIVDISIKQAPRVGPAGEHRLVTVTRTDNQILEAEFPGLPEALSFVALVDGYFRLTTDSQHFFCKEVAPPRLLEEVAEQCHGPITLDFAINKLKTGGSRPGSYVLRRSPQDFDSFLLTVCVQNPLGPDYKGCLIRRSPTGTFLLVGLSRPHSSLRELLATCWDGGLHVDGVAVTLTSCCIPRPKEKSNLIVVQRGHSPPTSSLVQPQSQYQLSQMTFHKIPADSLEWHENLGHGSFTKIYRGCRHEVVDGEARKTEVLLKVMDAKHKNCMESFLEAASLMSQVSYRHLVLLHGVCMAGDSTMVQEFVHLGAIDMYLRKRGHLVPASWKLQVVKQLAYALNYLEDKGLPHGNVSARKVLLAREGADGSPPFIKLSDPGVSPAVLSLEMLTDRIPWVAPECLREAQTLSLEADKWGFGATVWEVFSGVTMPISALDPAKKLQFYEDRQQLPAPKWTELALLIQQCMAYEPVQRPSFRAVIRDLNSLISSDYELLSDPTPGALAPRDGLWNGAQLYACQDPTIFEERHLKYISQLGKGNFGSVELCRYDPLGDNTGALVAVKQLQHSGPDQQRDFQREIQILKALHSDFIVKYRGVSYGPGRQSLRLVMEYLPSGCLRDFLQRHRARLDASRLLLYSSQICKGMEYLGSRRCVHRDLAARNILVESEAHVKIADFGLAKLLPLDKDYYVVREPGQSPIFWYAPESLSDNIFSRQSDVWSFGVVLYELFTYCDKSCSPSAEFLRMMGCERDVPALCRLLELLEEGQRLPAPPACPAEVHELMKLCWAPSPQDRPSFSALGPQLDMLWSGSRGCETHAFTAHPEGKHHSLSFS

Chain of JAK-2 enzyme (O60674 whole entry): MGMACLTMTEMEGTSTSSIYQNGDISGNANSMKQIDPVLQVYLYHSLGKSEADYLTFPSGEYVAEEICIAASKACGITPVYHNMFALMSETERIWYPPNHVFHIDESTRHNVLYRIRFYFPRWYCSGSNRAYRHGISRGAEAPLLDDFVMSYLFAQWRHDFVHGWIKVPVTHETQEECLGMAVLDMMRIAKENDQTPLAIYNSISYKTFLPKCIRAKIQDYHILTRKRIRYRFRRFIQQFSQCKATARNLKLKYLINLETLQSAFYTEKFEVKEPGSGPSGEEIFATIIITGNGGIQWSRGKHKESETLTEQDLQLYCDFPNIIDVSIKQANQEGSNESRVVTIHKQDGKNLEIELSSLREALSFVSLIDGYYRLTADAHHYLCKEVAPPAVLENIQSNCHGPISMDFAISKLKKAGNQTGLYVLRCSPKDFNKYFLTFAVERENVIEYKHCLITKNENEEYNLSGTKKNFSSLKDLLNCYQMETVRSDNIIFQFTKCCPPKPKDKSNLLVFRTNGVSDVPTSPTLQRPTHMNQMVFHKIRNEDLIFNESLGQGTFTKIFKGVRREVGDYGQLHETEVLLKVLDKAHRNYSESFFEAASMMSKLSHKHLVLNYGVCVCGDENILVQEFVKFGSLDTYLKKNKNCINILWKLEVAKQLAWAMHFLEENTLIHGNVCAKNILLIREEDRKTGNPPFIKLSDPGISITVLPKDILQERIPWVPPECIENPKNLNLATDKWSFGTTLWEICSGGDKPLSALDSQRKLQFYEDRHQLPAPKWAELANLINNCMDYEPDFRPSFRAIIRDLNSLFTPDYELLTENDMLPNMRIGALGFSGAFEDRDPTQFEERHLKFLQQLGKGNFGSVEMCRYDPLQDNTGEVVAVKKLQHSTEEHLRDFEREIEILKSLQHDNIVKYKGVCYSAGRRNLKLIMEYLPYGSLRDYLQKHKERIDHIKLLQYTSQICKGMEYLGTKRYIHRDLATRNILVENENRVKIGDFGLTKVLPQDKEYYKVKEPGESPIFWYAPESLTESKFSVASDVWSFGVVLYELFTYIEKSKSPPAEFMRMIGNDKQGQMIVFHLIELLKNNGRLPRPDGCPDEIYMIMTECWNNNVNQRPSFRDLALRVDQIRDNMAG

Ki [1] [nM]	Ki [2] [nM]	Compound
< 10	10 to 100	COc1ccccc1CNc1cc(-c2c(N)nn3cccnc23)ncn1 [Compound 5]
< 10	10 to 100	Cc1ccccc1CNc1cc(-c2c(N)nn3cccnc23)ncn1 [Compound 11]
< 10	10 to 100	Nc1nn2cccnc2c1-c1cc(NCc2ccccc2OC(F)(F)F)ncn1 [Compound 14]
10 to 100	100 to 500	C[C@@H](c1ccccc1)N(C)c1cc(-c2c(N)nn3cccnc23)ncn1 [Compound 19]
10 to 100	100 to 500	C[C@H](c1ccccc1)N(C)c1cc(-c2c(N)nn3cccnc23)ncn1 [Compound 20]
10 to 100	10 to 100	Nc1nn2cccnc2c1-c1cc(NCc2ccco2)ncn1 [Compound 24]
10 to 100	100 to 500	Cc1ccc(CNc2cc(-c3c(N)nn4cccnc34)ncn2)o1 [Compound 26]
10 to 100	100 to 500	Nc1nn2cccnc2c1-c1cc(N2Cc3ccccc3C2)ncn1 [Compound 27]
10 to 100	100 to 500	Nc1nn2cccnc2c1-c1cc(NCc2csc3ccccc23)ncn1 [Compound 31]
10 to 100	10 to 100	CN(Cc1cccnc1)c1cc(-c2c(N)nn3cccnc23)ncn1 [Compound 33]
100 to 500	100 to 500	COc1cc2c(cc1OC)CN(c1cc(-c3c(N)nn4cccnc34)ncn1)CC2 [Compound 35]
< 10	10 to 100	Nc1nn2cccnc2c1-c1cc(NCc2ccsc2Br)ncn1 [Compound 36]
10 to 100	100 to 500	Nc1nn2cccnc2c1-c1cc(N2CCc3ccccc3C2)ncn1 [Compound 42]
10 to 100	100 to 500	Nc1nn2cccnc2c1-c1cc(NCc2cc(C(F)(F)F)ccc2F)ncn1 [Compound 45]
< 10	10 to 100	Nc1nn2cccnc2c1-c1cc(NCc2ccc(C(F)(F)F)cc2F)ncn1 [Compound 46]
< 10	10 to 100	Nc1nn2cccnc2c1-c1cc(N2CCCC2c2ccccc2)ncn1 (stereo not drawn) [Compound 57]
< 10	10 to 100	CC[C@H](Nc1cc(-c2c(N)nn3cccnc23)ncn1)c1ccc(F)c(F)c1 [Compound 62]
< 10	100 to 500	CCC1c2ccccc2CCN1c1cc(-c2c(N)nn3cccnc23)ncn1 (stereo not drawn) [Compound 64]
< 10	10 to 100	CCC(Oc1cc(-c2c(N)nn3cccnc23)ncn1)c1ccccc1 (stereo not drawn) [Compound 65]

Ki [1] [nM]	Ki [2] [nM]	Compound
500 to 5000	> 5000	Nc1nn2cccnc2c1-c1cc(OC(c2ccccc2)C2CC2)ncn1 (stereo not drawn) [Compound 66]
10 to 100	100 to 500	C[C@@H](Oc1cc(-c2c(N)nn3cccnc23)ncn1)c1ccccc1 [Compound 67]
< 10	10 to 100	C[C@H](Oc1cc(-c2c(N)nn3cccnc23)ncn1)c1ccccc1 [Compound 68]
10 to 100	100 to 500	Nc1nn2cccnc2c1-c1cc(O[C@H](c2ccccc2)C(F)(F)F)ncn1 [Compound 69]
100 to 500	500 to 5000	Nc1nn2cccnc2c1-c1cc(O[C@@H](c2ccccc2)C(F)(F)F)ncn1 [Compound 70]
< 10	10 to 100	CC(Oc1cc(-c2c(N)nn3cccnc23)ncn1)c1ccc(F)cc1 (stereo not drawn) [Compound 71]
100 to 500	> 5000	Nc1nn2cccnc2c1-c1cc(OCc2ccc(C(F)(F)F)cc2)ncn1 [Compound 72]
10 to 100	100 to 500	Nc1nn2cccnc2c1-c1cc(N[C@H]2CCCc3ccccc32)ncn1 [Compound 76]
10 to 100	100 to 500	Nc1nn2cccnc2c1-c1cc(N[C@@H]2CCCc3ccccc32)ncn1 [Compound 79]
< 10	10 to 100	C[C@H](Nc1cc(-c2c(N)nn3cccnc23)ncn1)c1ccc(F)cc1Cl [Compound 80]
< 10	10 to 100	C[C@H](Nc1cc(-c2c(N)nn3cccnc23)ncn1)c1ccc(Cl)cc1F [Compound 81]
< 10	10 to 100	CC[C@H](Nc1cc(-c2c(N)nn3cccnc23)ncn1)c1ccc(F)cc1Cl [Compound 82]
< 10	100 to 500	CC[C@H](Nc1cc(-c2c(N)nn3cccnc23)ncn1)c1ccc(Cl)cc1F [Compound 83]
< 10	10 to 100	CC[C@@H](Nc1cc(-c2c(N)nn3cccnc23)ncn1)c1ccc(F)cc1F [Compound 88]
< 10	10 to 100	Nc1nn2cccnc2c1-c1cc(NC2(c3ccc(F)cc3)CC2)ncn1 [Compound 90]
< 10	10 to 100	C[C@H](Nc1cc(-c2c(N)nn3cccnc23)nc(C2CC2)n1)c1ccc(F)cc1 [Compound 91]
< 10	10 to 100	CSc1nc(N[C@@H](C)c2ccc(F)cc2)cc(-c2c(N)nn3cccnc23)n1 [Compound 92]
< 10	10 to 100	CC[C@H](Nc1cc(-c2c(N)nn3ccc(C)nc23)ncn1)c1ccc(F)c(F)c1 [Compound 94]
< 10	10 to 100	Cc1ccn2nc(N)c(-c3cc(N[C@@H](C)c4ccc(F)cc4)ncn3)c2n1 [Compound 95]

Ki [1] [nM]	Ki [2] [nM]	Compound
< 10	10 to 100	C[C@H](Nc1cc(-c2c(N)nn3cccnc23)nc(N2CCOCC2)n1)c1ccc(F)cc1 [Compound 96]
10 to 100	100 to 500	CCC[C@@H](Nc1cc(-c2c(N)nn3cccnc23)ncn1)c1ccc(F)c(F)c1 [Compound 97]
< 10	10 to 100	CCC[C@H](Nc1cc(-c2c(N)nn3cccnc23)ncn1)c1ccc(F)c(F)c1 [Compound 98]
< 10	10 to 100	CCN(CC)CCOc1nc(N[C@@H](C)c2ccc(F)cc2)cc(-c2c(N)nn3cccnc23)n1 [Compound 99]
< 10	< 10	C[C@H](Nc1cc(-c2c(N)nn3cccnc23)nc(S(C)(=O)=O)n1)c1ccc(F)cc1 [Compound 100]
10 to 100	100 to 500	Nc1nn2cccnc2c1-c1cc(N[C@@H](CCO)c2ccccc2)nc(N2CCOCC2)n1 [Compound 102]
10 to 100	100 to 500	CCC[C@H](Nc1cc(-c2c(N)nn3cccnc23)nc(N2CCOCC2)n1)c1ccc(F)cc1 [Compound 103]
100 to 500	500 to 5000	CC(C)[C@@H](Nc1cc(-c2c(N)nn3cccnc23)nc(N2CCOCC2)n1)c1ccc(F)cc1F [Compound 104]
< 10	10 to 100	C[C@H](Nc1cc(-c2c(N)nn3cc(F)cnc23)ncn1)c1ccc(F)cc1F [Compound 105]
< 10	10 to 100	C[C@H](Nc1cc(-c2c(N)nn3cccnc23)nc(N2CCOCC2)n1)c1ccc(F)cc1F [Compound 106]
10 to 100	100 to 500	CCC[C@H](Nc1cc(-c2c(N)nn3cccnc23)nc(N2CCOCC2)n1)c1ccc(F)cc1F [Compound 107]
< 10	10 to 100	COCCOc1nc(N[C@@H](C)c2ccc(F)cc2)cc(-c2c(N)nn3cccnc23)n1 [Compound 108]
< 10	10 to 100	C[C@H](Nc1cc(-c2c(N)nn3cccnc23)nc(OCCN2CCOCC2)n1)c1ccc(F)cc1 [Compound 109]
< 10	10 to 100	CCC[C@H](Nc1cc(-c2c(N)nn3cccnc23)nc(S(C)(=O)=O)n1)c1ccc(F)cc1 [Compound 110]
< 10	< 10	C[C@H](Nc1cc(-c2c(N)nn3cccnc23)nc(S(C)(=O)=O)n1)c1ccc(F)cc1F [Compound 111]
< 10	10 to 100	CCC[C@H](Nc1cc(-c2c(N)nn3cccnc23)nc(S(C)(=O)=O)n1)c1ccc(F)cc1F [Compound 112]
100 to 500	500 to 5000	CC(C)[C@@H](Nc1cc(-c2c(N)nn3cccnc23)nc(S(C)(=O)=O)n1)c1ccc(F)cc1F [Compound 113]
< 10	10 to 100	C[C@H](Nc1cc(-c2cnn3cccnc23)ncn1)c1ccc(F)cc1 [Compound 114]
10 to 100	10 to 100	OCC[C@H](Nc1cc(-c2cnn3cccnc23)ncn1)c1ccccc1 [Compound 115]
